Laboratory results taken from patent publication US20050281745A1, “Stable isotope based dynamic metabolic profiling of living organisms for characterization of metabolic diseases, drug testing and drug development” (priority 2002, published 2005).

System: pentose cycle, glucose activation and fatty acid synthesis pathways
Assay: stable isotope ([1,2-13C2]glucose) based dynamic metabolic profiling
Type: cell-based
Conditions: for cell proliferation rates / nucleic acid ribose synthesis through the non-oxidative steps of the pentose cycle: metabolic profile induced by cell transforming agents
Excerpt: The present invention comprises, for example, the use of the stable [1,2-^13C2]glucose tracer for metabolic pathway analyses in cultures of mammalian cells, bacteria, virus hosting cells, phage hosting bacteria, tissue slices, perfused organs, living animals or humans. The invention provides a dynamic and comprehensive metabolic profiling technique by using specifically labeled glucose substrate isotopes which not only turn into intermediary metabolites but also produce mass isotopomers of these metabolites which can be separated, measured and quantitated using liquid and gas chromatography separation and mass spectrometry (GC/MS), other mass spectrometric analysis or nuclear magnetic resonance (NMR) instruments.
After treatments, while incubating with the isotope labeled glucose substrate, the profiling study may begin with the separation of cell pellets, cell culture media, blood plasma/serum or body fluids. The cell culture media may then be used for lactate and glutamate analyses. Lactate is an abundant cell media component of the 3 carbon metabolite pool of the cell. It is used to determine the relative activity of pentose cycle glucose oxidation and recycling into glycolysis, as the percent of substrate flux through glycolysis, also known as the Embden-Meyerhoff-Parnas pathway. Glutamate label accumulation represents tricarboxylic acid (TCA) cycle carbon substrate flow. Nucleic acid ribose and deoxyribose are used to determine cell viability (ribose) and cell proliferation (deoxyribose).
Cell cycle progression and the frequency of cell divisions are determined by the accumulation of ^13C label into deoxyribose, while cell viability, apoptosis and necrosis are determined by the differential incorporation of ^13C into ribose and deoxyribose. The major advantage of our label system introduced herein is that we can differentiate between glucose oxidation and nonoxidative ribose/deoxyribose synthesis during nucleic acid production in disease and health as well as during drug testing. Glycogen glucose represents glycogen synthesis, which can originate from activated glucose (direct glycogen synthesis) or indirectly from pentoses after glucose oxidation in the pentose cycle. Non-essential fatty acids of the saturated and desaturated kinds indicate the rate of de novo fatty acid synthesis from glucose and the contribution of fatty acid synthase, chain elongase and desaturase to cell differentiation, hormone synthesis and drug effects.
The details of how the invention can be carried out can be better understood by reference to the figures. […] Glucose activation via hexokinase/glucokinase and the formation of fructose-1,6-bis phosphate maintain the ^13C labeled carbons in the 1st and 2nd positions. ^13C-labeled carbon positions derived from [1,2-^13C2]glucose are shown by the “13” superscript, while ^12C native-labeled carbon positions are shown by the “12” superscript. Participating enzymes are italicized in all of the figures. Thus, a single version of the invention can be carried out by creating two separate cell culture systems. The first system is a control system which includes the ^13C labeled glucose which may be [1,2-^13C2] glucose. […]

Compound | glucose activation and oxidative and non-oxidative ribose synthesis from glucose (metabolic profile of anticancer compounds, associated with effective tumor growth control) | cell proliferation rates | nucleic acid ribose synthesis through the non-oxidative steps of the pentose cycle
Cc1ccc(NC(=O)c2ccc(CN3CCN(C)CC3)cc2)cc1Nc1nccc(-c2cccnc2)n1 [Gleevec] | inhibited |  | 
CCOP(=S)(NC(C)C)Oc1ccccc1C(=O)OC(C)C (centres unmarked) [isofenphos] |  | increased | intense
transforming growth factor beta [TGF-beta] |  | increased | intense
